These results are taken from patent publication US20220386608A1, “INSECTICIDAL MIXTURES OF BIFENTHRIN AND CHLORANTRANILIPROLE” (priority 2019, published 2022).

Type in all cases: in vivo
The test system of data set [1] is S. frugiperda field strain. As to the kind of experiment: Example 5C, protocol H: mortality on treated leaves, synergy by Colby equation. The conditions noted are these: for Mortality: field strain, 96 hours, substance and dose g a.i./ha per treatment number of Table 5B. Here is the method: (§1) Ratios of bifenthrin to chlorantraniliprole were evaluated on various crops and target pests as indicated in the protocol disclosed Table 5A below where “Lab.” Refers to laboratory, “No. of Treat.” refers to number of treatments, and Total refers to the total number of insects tested. In each evaluation, foliar application was done, the insecticide action was contact/ingestion and 32 insects were evaluated in each treatment.
(§2) The treatment schedule shown in Table 5B was used where “dose” refers to application rate, “ratio” refers to the ratio of bifenthrin to chlorantraniliprole on an a.i. basis.
(§3) Treatments were applied inside a sprayer chamber simulating a volume of 200 l/ha over soybean plants. After a drying period, treated leaves were removed from the plants and placed inside 16 well trays containing agar solution (2%) covered with filter paper. Two 16 well trays were prepared for each treatment (32 larvae/treatment). One 3rd instar larva from laboratory strains was placed in each well over the treated leaf. Trays were kept under controlled conditions of 25° C., photoperiod of 14:10 hours, and 60% RH. Morality was evaluated after 96 hours. Mortality is defined as dead and moribund larvae.
(§4) Synergy or antagonism was determined using the Colby Equation where: […]
(§5) X is the observed result for compound A at p grams a.e./ha. Y is the observed result for compound B at q grams a.e./ha. E is the expected result for a mixture of A and B at (p+q) g a.i./ha if there is no synergy or antagonism. If the observed value for the combination of A and B is greater than E (Obs>E) then synergy is indicated. If the observed value for the combination of A and B is less than E (Obs<E) then antagonism is indicated.
(§6) Morality on S. frugiperda was evaluated according to protocols G and H (refer to Table 5B), but where two S. frugiperda strains were tested: a laboratory strain (susceptible) and a field strain in F3 generation sampled in the 2018/2019 season in Sinop-MT region using treatment numbers 5.1 to 5.10 (refer to Table 5B). The results are reported in Tables 5E (Laboratory Strain) and 5F (Filed Strain).

Another data set has as its system H. armigera. Put plainly: Example 5B, protocol B: mortality on treated leaves, synergy by Colby equation. The conditions noted are these: for Mortality: mean mortality after 96 hours, substance and dose g a.i./ha per treatment number of Table 5B. Here is the method: as §1, §2, §3, §4, §5
Morality on H. armigera was evaluated according to protocol B (refer to Table 5B) using treatment numbers 5.1 to 5.13 (refer to Table 5B).

Data set [2] deals with S. frugiperda laboratory strain (susceptible). As to the kind of experiment: Example 5C, protocol G: mortality on treated leaves, synergy by Colby equation. Conditions: 96 hours, substance and dose g a.i./ha per treatment number of Table 5B. Here is the method:
as §1, §2, §3, §4, §5, §6

The subject of data set [3] is E. heros 3rd instar nymphs. As to the kind of experiment: Example 5D, protocol C: mortality on sprayed soybean plants after 72 hours, synergy by Colby equation. Conditions: for Mortality: E. heros 3rd instar nymphs, sprayed soybean plants (V2), after 72 hours, Table 5G. Here is the method:
as §1, §2, §4, §5
(§7) Morality on E. heros was evaluated according to protocols C and D (refer to Table 5B). In the evaluation method, insecticides (treatment numbers 5.1, 5.3, 5.5 to 5.8 and 5.10 to 5.13 (refer to Table 5B)) were applied over soybean plants at V2 stage inside a spray chamber. After a drying period, a first portion of the plants were infested with 10 3rd instar nymphs of E. heros per plant, with three repetitions per treatment with a total of 30 nymphs per treatment. After the drying period, a second portion of the plants were infested with 10 adults of E. heros per plant, with three repetitions per treatment with a total of 30 adults per treatment. Infested plants were maintained in a greenhouse controlled at a temperature of 26° C. Mortality was evaluated after 72 hours. The results are reported in Tables 5G (nymphs) and 5H (adults).

The subject of another data set is E. heros adults. Put plainly: Example 5D, protocol D: mortality on sprayed soybean plants after 72 hours, synergy by Colby equation. Also noted: concentration or dose not given beside the values. The conditions noted are these: sprayed soybean plants (V2), Table 5H. Here is the method: as §1, §2, §4, §5, §7
A further data set has as its system D. melachantus adults. Put plainly: Example 5E, protocol F: mortality on sprayed plants after 72 hours, synergy by Colby equation. Also noted: concentration or dose not given beside the values. The conditions noted are these: Table 5J. Here is the method: as §1, §2, §4, §5, §7
(§8) Morality on D. melachantus was evaluated according to protocols E and F (refer to Table 5B). In the evaluation method, insecticides (treatment numbers 5.1, 5.3, 5.5 to 5.8 and 5.10 to 5.13 (refer to Table 5B)). Evaluation was done according to the method of Example 5D. The results are reported in Tables 5I (nymphs) and 5J (adults).

A further data set relates to C. includens. As to the kind of experiment: Example 5A, protocol A: mortality on treated leaves, synergy by Colby equation. The conditions noted are these: for Mortality: mean mortality after 96 hours, substance and dose g a.i./ha per treatment number of Table 5B. Here is the method:
as §1, §2, §3, §4, §5
Morality on C. includens was evaluated according to protocol A (refer to Table 5B) using treatment numbers 5.1, 5.3, 5.5 to 5.8 and 5.10 to 5.13 (refer to Table 5B). The results are reported in Table 5C below where mortality is the mean mortality, the E value was calculated by the Colby equation, and the synergy value is determined by dividing the mean mortality (%) by the expected value (E).

In data set [4] the test system is D. melachantus 3rd instar nymphs. As to the kind of experiment: Example 5E, protocol E: mortality on sprayed plants after 72 hours, synergy by Colby equation. The arrangement: Mortality: concentration or dose not given beside the values. The conditions noted are these: for Mortality: D. melachantus nymphs, sprayed plants, after 72 hours, Table 5I. Here is the method: as §1, §2, §4, §5, §7, §8

Consider `Cc1c(COC(=O)[C@@H]2[C@H](/C=C(\Cl)C(F)(F)F)C2(C)C)cccc1-c1ccccc1` (racemic) [Bifenthrin, 2-methylbiphenyl-3-ylmethyl (Z)-(1RS)-cis-3-(2-chloro-3,3,3-trifluoroprop-1-enyl)-2,2-dimethyl cyclopropanecarboxylate], for which the “control of S. frugiperda, in words” value in data set [1] (lower doses, especially on the field strain) was “lower control”. In addition, in the data set with H. armigera (even at a higher dose of 60 g a.i./ha, resistance to pyrethroids), the “H. armigera control, in words” value was “lower control”.
For the molecule `Cc1c(COC(=O)[C@@H]2[C@H](/C=C(\Cl)C(F)(F)F)C2(C)C)cccc1-c1ccccc1` (racemic) [Treatment 5.4, Bifenthrin], the Mortality in data set [1] (listed as 5.4) is on record as 3.1%; in data set [2] (listed as 5.4) it was 34.4%; in the data set on H. armigera (listed as 5.4), 0%.
In the case of `Cc1c(COC(=O)[C@@H]2[C@H](/C=C(\Cl)C(F)(F)F)C2(C)C)cccc1-c1ccccc1` (racemic) [Treatment 5.5, Bifenthrin], the Mortality is on record as 3.1% in data set [1] (listed as 5.5); 38.9% in data set [3] (listed as 5.5); 3.3% in the data set with E. heros adults (listed as 5.5); 39.3% in the data set with D. melachantus adults (listed as 5.5); 53.1% in data set [2] (listed as 5.5); 0% with H. armigera (listed as 5.5). Besides, the Mortality in the data set on C. includens (listed as 5.5) was determined as 34.4%; in data set [4] (listed as 5.5), 56.7%.
`Cc1c(COC(=O)[C@@H]2[C@H](/C=C(\Cl)C(F)(F)F)C2(C)C)cccc1-c1ccccc1` (racemic) [Treatment 5.6, Bifenthrin]: the Mortality came out at 15.6% in data set [1] (listed as 5.6); 43.3% in data set [3] (listed as 5.6); 30.0% in the data set with E. heros adults (listed as 5.6); 70.0% in the data set with D. melachantus adults (listed as 5.6); 78.1% in data set [2] (listed as 5.6); 0% with H. armigera (listed as 5.6). For the same molecule, the Mortality in the data set on C. includens (listed as 5.6) stood at 68.8%; in data set [4] (listed as 5.6), 70.0%.
With `Cc1c(COC(=O)[C@@H]2[C@H](/C=C(\Cl)C(F)(F)F)C2(C)C)cccc1-c1ccccc1` (racemic) [Treatment 5.7, Bifenthrin], the Mortality amounted to 43.8% in data set [1] (listed as 5.7); 76.7% in data set [3] (listed as 5.7); 56.7% with E. heros adults (listed as 5.7); 100% with D. melachantus adults (listed as 5.7); 96.9% in data set [2] (listed as 5.7); 0% in the data set with H. armigera (listed as 5.7). In addition, the Mortality with C. includens (listed as 5.7) is recorded as 78.1%; in data set [4] (listed as 5.7), 100%.
`Cc1c(COC(=O)[C@@H]2[C@H](/C=C(\Cl)C(F)(F)F)C2(C)C)cccc1-c1ccccc1` (racemic) [Treatment 5.8, Bifenthrin]: the Mortality was 43.8% in data set [1] (listed as 5.8); 85.2% in data set [3] (listed as 5.8); 80.0% in the data set on E. heros adults (listed as 5.8); 100% in the data set with D. melachantus adults (listed as 5.8); 93.8% in data set [2] (listed as 5.8); 9.4% in the data set on H. armigera (listed as 5.8). The Mortality was determined as 78.1% with C. includens (listed as 5.8) and 100% in data set [4] (listed as 5.8).
On to `CNC(=O)c1cc(Cl)cc(C)c1NC(=O)c1cc(Br)nn1-c1ncccc1Cl` [Chlorantraniliprole, 5-bromo-N-[4-chloro-2-methyl-6-(methylcarbamoyl)phenyl]-2-(3-chloropyridin-2-yl)pyrazole-3-carboxamide], for which the “control of E. heros, in words” value in data set [3] (nymphs and adults (protocols C and D)) was “did not control”. In addition, the “H. armigera control, in words” value with H. armigera (7.5 g a.i./ha) is reported as “most effective”. The “control of C. includens, in words” value with C. includens (7.5 g a.i./ha) is “most effective”. Besides, the “control of D. melacanthus, in words” value in data set [4] (nymphs and adults (protocols E and F)) is recorded as “did not control”.
As for `CNC(=O)c1cc(Cl)cc(C)c1NC(=O)c1cc(Br)nn1-c1ncccc1Cl` [Treatment 5.2, Chlorantraniliprole], the Mortality in data set [1] (listed as 5.2) was 40.6%; in data set [2] (listed as 5.2), 96.9%; with H. armigera (listed as 5.2), 84.4%.
For `CNC(=O)c1cc(Cl)cc(C)c1NC(=O)c1cc(Br)nn1-c1ncccc1Cl` [Treatment 5.3, Chlorantraniliprole], the Mortality in data set [1] (listed as 5.3) is 59.4%; in data set [3], 0%; in the data set with E. heros adults, 3.3%; with D. melachantus adults, 0%; in data set [2] (listed as 5.3), 100%; in the data set on H. armigera (listed as 5.3), 100%. Besides, the Mortality in the data set with C. includens came out at 100%; in data set [4], 7.0%.
